We go through five molecules from patent US9956301B2, “Complex of garcinol, cyclodextrin and method thereof” (Indus Biotech Private Limited, priority 2010, dated 2018).

Like-named read-outs stand apart in the source and are kept apart here.

Data set [1] relates to Doxorubicin induced cardiac dysfunction. As to the kind of experiment: Activity of Garcinol against Doxorubicin induced cardiac dysfunction. The data set is classed as in vivo. The note with it: rats; for Glutathione / Lipid Peroxidation: heart tissue, Garcinol 100 mg/kg p.o. + Doxorubicin 10 mg/kg i.v., n = 4. The method, then:
Male Wistar rats were pretreated with Garcinol at 10, 25, 50, 100 and 200 mg/kg (p.o.) for 18 days. On day 16, Doxorubicin at a dose of 10 mg/kg (i.v.) was administered intravenously. On day 18, animals were sacrificed. […] Elevated oxidative stress on the heart was also seen from increased lipid peroxidation and decreased glutathione (GSH) concentrations.

For data set [2], the system named is cardiac dysfunction induced by chronic Doxorubicin administration. As to the kind of experiment: Effect of test molecule in chronic administration of Doxorubicin. Particulars: for Cytoplasmic Eosinophilia / Cytoplasmic vacuoles / Inflammation / Myocardial necrosis / Vascular congestion: heart histopathology, day 30, chronic Doxorubicin, Test Molecule 20 mg/kg; for Cytoplasmic Eosinophilia / Cytoplasmic vacuoles / Inflammation / Myocardial necrosis / Vascular congestion / Glutathione / Lipid Peroxidation: n = 4; for Glutathione / Lipid Peroxidation: heart tissue, Test Molecule 20 mg/kg p.o. 30 days + chronic Doxorubicin; for Glutathione / Lipid Peroxidation / Diastolic Blood Pressure / Mean Arterial Blood Pressure / Systolic Blood Pressure / Difference in Heart Rate / Difference in QT interval / Difference in QTc interval / Difference in ST interval: rats, Doxorubicin Control = Doxorubicin alone, Mean ± SEM; for Diastolic Blood Pressure / Mean Arterial Blood Pressure / Systolic Blood Pressure: Test Molecule 20 mg/kg p.o. 30 days + chronic Doxorubicin 3 mg/kg x 5; for Diastolic Blood Pressure / Mean Arterial Blood Pressure / Systolic Blood Pressure / Difference in Heart Rate / Difference in QT interval / Difference in QTc interval / Difference in ST interval: n = 6; for Difference in Heart Rate / Difference in QT interval / Difference in QTc interval / Difference in ST interval: pretreatment p.o. 30 days (Test Molecule 20 mg/kg) + Doxorubicin 3 mg/kg on days 1, 7, 14, 21, 28. The data set is classed as in vivo, Male Wistar rats. The method, then: Male Wistar rats were pretreated with 20 mg/kg (p.o.) of test molecule for 30 days. On days 1, 7, 14, 21 and 28, Doxorubicin at a dose of 3 mg/kg […] was administered intravenously. On Day 30, animals were sacrificed for histopathological examination of the heart.

For data set [3], the system named is Doxorubicin induced cardiac dysfunction. The class given is in vivo. The note with it: rats, Doxorubicin Control = Doxorubicin alone, Mean ± SEM; for Glutathione / Lipid Peroxidation: heart tissue, Test Molecule 20 mg/kg p.o. + Doxorubicin 10 mg/kg i.v., n = 4; for Diastolic Blood Pressure / Mean Arterial Blood Pressure / Systolic Blood Pressure: Test Molecule 20 mg/kg p.o. 18 days + Doxorubicin 10 mg/kg i.v. day 16; for Diastolic Blood Pressure / Mean Arterial Blood Pressure / Systolic Blood Pressure / Difference in Heart Rate / Difference in QT interval / Difference in ST interval: n = 6; for Difference in Heart Rate / Difference in QT interval / Difference in ST interval: pretreatment p.o. 18 days (Test Molecule 20 mg/kg) + Doxorubicin 10 mg/kg i.v. day 16. The method, then:
Male Wistar rats were pretreated with 20 mg/kg (p.o.) of test molecule for 18 days. On day 16, Doxorubicin at a dose of 10 mg/kg (i.v.) was administered intravenously. On day 18, animals were sacrificed. […] It also induces significant prolongation of QT and ST intervals. Significant reduction of mean arterial blood pressure, systolic and diastolic blood pressures were observed. Elevated oxidative stress on the heart was also seen from increased lipid peroxidation and decreased glutathione (GSH) concentrations.

Data set [4] in a line: Water solubility of Garcinol and test molecule. The data set is classed as physicochemical. Particulars: room temperature. From the text: Garcinol is insoluble in water at room temperature.
The test system of data set [5] is Isoproterenol induced cardiac dysfunction. As to the kind of experiment: Cardioprotective activity of test molecule in Isoproterenol induced cardiac dysfunction. The data set is classed as in vivo, Male Wistar rats. The note with it: rats, Isoproterenol Control = Isoproterenol alone, Mean ± S.E.M. How it is done:
Male Wistar rats were pretreated with 20 mg/kg (p.o.) of test molecule 18 days. From Day 9, Isoproterenol at a dose of 1 mg/kg/day was administered intravenously for 10 days. Isoproterenol administration induced significant changes to the QT and ST interval. Isoproterenol induced oxidative stress was observed by decreased Glutathione (GSH) and increased lipid peroxidation concentrations in the heart.

Data set [6] has as its system Digitalis induced cardiac dysfunction. In words: Cardioprotective activity of test molecule in Digitalis induced cardiac dysfunction. The class given is in vivo, Male Wistar rats. The method, then: Male Wistar rats were pretreated with 20 mg/kg (p.o.) of test molecule for 18 days. On Day 18, Digitalis at a three doses of 500 […] was administered intravenously with interval period of 15 min. After this, 200 […] was administered every 15 min continued upto cardiac arrest. Histopathological examination of the heart was conducted.

The mark [7] stands for this setting: Doxorubicin Control = Doxorubicin alone, Mean ± SEM.
[8] abbreviates: Garcinol 100 mg/kg p.o. 18 days + Doxorubicin 10 mg/kg i.v. day 16, Doxorubicin Control = Doxorubicin alone, Mean ± SEM, n = 6.
Setting [9] is: heart tissue, Test Molecule 20 mg/kg + Isoproterenol, n = 4.
[10] abbreviates: test molecule 20 mg/kg p.o. 18 days + Isoproterenol 1 mg/kg/day i.v. 10 days from Day 9, n = 5.
Where [11] appears, read: heart histopathology, Digitalis induced cardiac dysfunction, n = 4.
Where [12] appears, read: rats, test molecule 20 mg/kg p.o. 18 days + Digitalis i.v., Digitalis Control = Digitalis alone, Mean ± S.E.M, n = 4.
Where [13] appears, read: rats, test molecule 20 mg/kg p.o. 18 days, then Digitalis i.v. every 15 min up to cardiac arrest, Digitalis Control = Digitalis alone, Mean ± S.E.M., n = 6.

`COc1cccc2c1C(=O)c1c(O)c3c(c(O)c1C2=O)C[C@@](O)(C(=O)CO)C[C@@H]3O[C@H]1C[C@H](N)[C@H](O)[C@H](C)O1` [Doxorubicin]: the “Number of Animals Deaths” value in data set [1] (Doxorubicin Control: Doxorubicin 10 mg/kg i.v. day 16 alone) is on record as 0/6. Moreover, in data set [1] (setting [7]), the Glutathione was 16.10 ± 1.17 μg/mg of protein and the “Lipid Peroxidation” value is recorded as 4.56 ± 0.47 nmol of MDA/mg of Protein. In data set [1] (setting [8]), the “Difference in Heart Rate” value is recorded as −77.5 ± 19.63 bpm, the “Difference in QT interval” value amounted to 0.014 ± 0.0035 s and the “Difference in ST interval” value is 0.0085 ± 0.0048 s. Besides, in data set [2], the “Cytoplasmic Eosinophilia” value is listed as “+++ ((+++) 60-90% of cells show changes)”, the Cytoplasmic vacuoles entry is recorded as “++ ((++) 30-60% of cells show changes)”, the Inflammation result is listed as “+++ ((+++) 60-90% of cells show changes)” and the Myocardial necrosis entry is “+++ ((+++) 60-90% of cells show changes)”. Also, in data set [2], the Vascular congestion entry was “++ ((++) 30-60% of cells show changes)”, the Glutathione is given as 15.05 ± 0.8970 μg/mg of protein, the “Lipid Peroxidation” value is listed as 4.631 ± 0.3671 nmol of MDA/mg of Protein and the “Diastolic Blood Pressure” value was determined as 82.81 ± 1.997 mm Hg. Moreover, in data set [2], the “Mean Arterial Blood Pressure” value was determined as 86.67 ± 0.9226 mm Hg, the “Systolic Blood Pressure” value came to 92.59 ± 1.728 mm Hg, the “Difference in Heart Rate” value was −64.59 ± 12.13 bpm and the “Difference in QT interval” value is 0.015 ± 0.00087 s. Further, in data set [2], the “Difference in QTc interval” value stood at 0.035 ± 0.0046 s and the “Difference in ST interval” value stood at 0.016 ± 0.0015 s. Also, in data set [3], the Glutathione is given as 17.29 ± 0.4496 μg/mg of protein, the “Lipid Peroxidation” value is listed as 4.160 ± 0.3427 nmol of MDA/mg of Protein, the “Diastolic Blood Pressure” value was 75.96 ± 3.611 mm Hg and the “Mean Arterial Blood Pressure” value is recorded as 89.26 ± 1.837 mm Hg. For the same molecule, in data set [3], the “Systolic Blood Pressure” value was determined as 89.44 ± 5.108 mm Hg, the “Difference in Heart Rate” value was −33.67 ± 15.96 bpm, the “Difference in QT interval” value came out at 0.0229 ± 0.00206 s and the “Difference in ST interval” value is 0.015 ± 0.001497 s.
For `C=C(C)[C@@H](CC=C(C)C)C[C@@]12C[C@@H](CC=C(C)C)C(C)(C)[C@@](CC=C(C)C)(C(=O)C(C(=O)c3ccc(O)c(O)c3)=C1O)C2=O` [Garcinol], the “Animal mortality / toxicity (in words)” value in data set [1] (Garcinol 100 to 200 mg/kg p.o., Doxorubicin 10 mg/kg i.v.) is on record as “animal mortality was observed”. For the same molecule, in data set [1] (setting [7]), the Glutathione is recorded as 22.05 ± 1.031 μg/mg of protein and the “Lipid Peroxidation” value is 1.69 ± 0.04 nmol of MDA/mg of Protein. The Water solubility result in data set [4] is recorded as “insoluble”.
With `CC(C)NCC(O)c1ccc(O)c(O)c1` (stereo not shown) [Isoproterenol], in data set [5] (setting [9]), the Glutathione was 19.02 ± 0.8526 μg/mg of protein and the “Lipid Peroxidation” value is on record as 4.443 ± 0.0392 nmol of MDA/mg of Protein. In data set [5] (setting [10]), the “Difference in Heart Rate” value stood at 43.66 ± 6.267 bpm, the “Difference in QT interval” value was found to be 0.01686 ± 0.002 s, the “Difference in ST interval” value turned out to be 0.0180 ± 0.0009 s and the “Mean Arterial Blood Pressure” value was determined as 72.45 ± 5.942 mm Hg.
For Cyclodextrin, in data set [2], the “Cytoplasmic Eosinophilia” value is listed as “++ ((++) 30-60% of cells show changes)”, the Cytoplasmic vacuoles entry is “++ ((++) 30-60% of cells show changes)”, the Inflammation entry was “+++ ((+++) 60-90% of cells show changes)” and the Myocardial necrosis entry is on record as “+++ ((+++) 60-90% of cells show changes)”. In data set [2], the Vascular congestion result is reported as “++ ((++) 30-60% of cells show changes)”, the Glutathione is reported as 15.15 ± 0.6584 μg/mg of protein, the “Lipid Peroxidation” value is given as 4.700 ± 0.6126 nmol of MDA/mg of Protein and the “Diastolic Blood Pressure” value worked out at 80.00 ± 2.298 mm Hg. Also, in data set [2], the “Mean Arterial Blood Pressure” value was determined as 88.04 ± 1.813 mm Hg, the “Systolic Blood Pressure” value is recorded as 92.22 ± 2.275 mm Hg, the “Difference in Heart Rate” value was −66.22 ± 8.303 bpm and the “Difference in QT interval” value came to 0.015 ± 0.00437 s. Further, in data set [2], the “Difference in QTc interval” value is 0.033 ± 0.0092 s and the “Difference in ST interval” value was 0.016 ± 0.0022 s. Besides, in data set [3], the Glutathione is 16.76 ± 0.4971 μg/mg of protein, the “Lipid Peroxidation” value was 4.056 ± 0.2880 nmol of MDA/mg of Protein, the “Diastolic Blood Pressure” value stood at 76.83 ± 1.709 mm Hg and the “Mean Arterial Blood Pressure” value is 89.26 ± 2.357 mm Hg. Besides, in data set [3], the “Systolic Blood Pressure” value was 89.88 ± 4.507 mm Hg, the “Difference in Heart Rate” value is given as −34.87 ± 6.935 bpm, the “Difference in QT interval” value came out at 0.0225 ± 0.00091 s and the “Difference in ST interval” value came to 0.014 ± 0.001025 s.
For the molecule Digitalis, in data set [6] (setting [11]), the “Cytoplasmic Eosinophilia” value is on record as “++ ((++) 30-60% of cells show changes)”, the Cytoplasmic vacuoles entry is given as “++ ((++) 30-60% of cells show changes)”, the Inflammation entry is on record as “+++ ((+++) 60-90% of cells show changes)” and the Myocardial necrosis result is “+++ ((+++) 60-90% of cells show changes)”. In data set [6] (setting [11]), the Vascular congestion entry is recorded as “++ ((++) 30-60% of cells show changes)”. Also, in data set [6] (setting [12]), the Glutathione was 21.01 ± 0.5369 μg/mg of protein and the “Lipid Peroxidation” value was 6.909 ± 0.4459 nmol of MDA/mg of Protein. For the same molecule, in data set [6] (setting [13]), the “Dose of Digitalis required for inducing Arterial Fibrillation” value stood at 2.933 ± 0.2333 mg/kg, the “Dose of Digitalis required for inducing Cardiac Arrest” value is 3.067 ± 0.2801 mg/kg and the “Dose of Digitalis required for inducing Ectopic Beats” value turned out to be 2.7 ± 0.2129 mg/kg.
